The subject of experiment [1] is South Johnstone soil. As to the kind of experiment: Soil microcosm incubation (nitrification of applied ammonium), South Johnstone soil. Conditions: South Johnstone soil, 25° C., days 21 and 28. The procedure:
(§1) The soil used in this study was collected from four different locations in Victoria, Australia: (i) a wheat cropping soil from Horsham (36° 45′S, 142° 07′ E), (ii) a rotational cropping soil from Dahlen (36° 37′S, 142° 09′ E), (iii) a vegetable growing soil from Clyde (38° 08′S, 145° 20′ E), and (iv) a pasture soil from Terang (38° 15′S, 142° 52′E). In addition, a sugarcane cropping soil from South Johnstone in northern Queensland (17° 34′S, 145° 57′ E) was also studied. The water content of the soil was calculated before commencing each experiment, from samples that were oven-dried to constant weight. The soil's water-filled pore space (WFPS) was in the range 52%-61%, which is within the recommended 50-70% range for microbial activity due to oxygen and nutrient availability (Fichtner, T., et al., Applied Sciences, 2019, 9, 496).
(§2) Soil microcosm incubations were carried out in 250 ml polypropylene specimen containers (Sarstedt, Germany), containing 18.24 g oven dry-weight equivalent of soil. Microcosms were re-wetted and pre-incubated at the test temperature for seven days to revive soil microbial activity. Following pre-incubation, the remaining volume to reach the desired water-filled pore spaces (WFPS %) was applied as one of the following treatment solutions; (NH4)2SO4(Control), (NH4)2SO4+DMPP, or (NH4)2SO4+one of Compounds 1-23. Each treatment was applied in triplicate per soil type, so that n=3 at each time point.
(§3) Treatment solutions were prepared such that each microcosm received (NH4)2SO4 at a rate of 100 mg N per kg soil, Compounds 1-23 at 10 mol % of applied N, or DMPP at one of 1.5, 3.6 or 10 mol % of applied N, referred to as L-DMPP, M-DMPP or H-DMPP respectively.
(§4) The microcosms were incubated for 0, 3, 7, 14, 21 or 28 days, where day 0 samples were extracted following 1-hour incubation post-treatment. Soil microcosms were aerated and moisture levels were replenished based on weight loss every few days throughout the incubation period.
(§5) At the end of each incubation period, soil microcosms were destructively sampled by treatment with 2M KCl (100 mL). After shaking for 1 hour, soil-KCl solutions were filtered (Whatman 42) before storing the filtrates at −20° C. until the conclusion of the experiment. All KCl extracts were then analysed by Segmented Flow Analysis (San++, Skalar, Breda, The Netherlands) for the concentration of nitrogen from ammonium (NH4^+—N) and nitrogen from NO3 and NO2 (NOx^−—N) after appropriate dilutions. Results are reported as the mean of three replicates, errors reported are standard errors of the mean.
(§6) Nitrification calculations were performed as previously reported (Aulakh, M., et al., Biology and Fertility of Soils 2001, 33, 258-263; Mahmood, T., et al., Soil Research 2017, 55, 715-722) without correction for the initial baseline concentrations of NH4^+—N or NO3^− N in the untreated soil. For each treatment nitrified NH4^+—N (%) was calculated according to eqn. 1:
(§7) where [NH4^+—N]0 is the NH4^+—N concentration (in mg N kg^−1 soil) of the soil on day 0 and [NH4^+—N]t is the NH4^+—N concentration (in mg N kg^−1 soil) of the soil at a given time point t.

In experiment [2] the test system is Horsham soil. The experiment is described as follows: Soil microcosm incubation (nitrification of applied ammonium), Horsham soil. To be noted: for rate of NOx−—N accumulation: 28-day incubation. As for the experimental part:
as §1, §2, §3, §4, §5, §6, §7
(§8) NOx^−—N accumulation rates (mg NOx^−—N/kg soil/day) over the 28-day incubation experiments were calculated for each treatment as in the following (eqn. 2):
(§9) [NOx^−—N]t=0 and [NOx^−—N]t=28 are the combined concentrations of nitrite (NO2) and nitrate (NO3) in the soil (in mg N kg^−1 soil) on day 0 and day 28, respectively.

The test system of experiment [3] is Dahlen soil. As to the kind of experiment: Soil microcosm incubation (nitrification of applied ammonium), Dahlen soil. To be noted: for NOx−—N accumulation rate / NOx−—N accumulation rate: effect of temperature (25° C. vs 35° C.): 28-day incubation; for Nitrified NH4+—N (%) Day 3 / Nitrified NH4+—N (%) Day 7 / Nitrified NH4+—N (%) Day 14 / Nitrified NH4+—N (%) Day 21 / Nitrified NH4+—N (%) Day 28: 10 mol %. The procedure:
as §1, §2, §3, §4, §5, §6, §7, §8, §9

[4] abbreviates: Horsham soil pH 8.8, 25° C., inhibitors 10 mol % of applied N.
Where [5] appears, read: Horsham soil pH 8.8, 25° C., 10 mol %.
Where [6] appears, read: Horsham soil pH 8.8, 35° C., 10 mol %.
Setting [7] is: Horsham soil, 25° C., after 28 days.
Setting [8] is: Dahlen soil, 25° C., after 28 days.
[9] abbreviates: Dahlen soil, 35° C., after 28 days.
Where [10] appears, read: Table 4, Dahlen soil pH 7.3, 25° C.
[11] abbreviates: Table 4, Dahlen soil pH 7.3, 35° C.

Turning to `CCCc1cn(CC(=O)OCC)nn1` [Compound 19, ethyl 2-(4-propyl-1H-1,2,3-triazol-1-yl)-acetate], in experiment [1], the “effectiveness among the treatments (NH4+—N retention, NOx−—N growth)” value is “least effective”.
For `C#CCCn1cc(CCC)nn1` [Compound 17, 1-(3-butyn-1-yl)-4-propyl-1H-1,2,3-triazole], the “Nitrified NH4+—N (%) Day 3” value in experiment [2] (setting [4]) turned out to be 13.5 ± 4.7%. In experiment [2] (setting [5]), the “Nitrified NH4+—N (%) Day 7” value is 30.6 ± 5.5%, the “Nitrified NH4+—N (%) Day 14” value worked out at 35.1 ± 5.1%, the “Nitrified NH4+—N (%) Day 21” value was found to be 43.9 ± 5.7% and the “Nitrified NH4+—N (%) Day 28” value is given as 65.8 ± 5.2%. Also, in experiment [2] (setting [6]), the “Nitrified NH4+—N (%) Day 3” value was −0.8 ± 3.4%, the “Nitrified NH4+—N (%) Day 7” value is 8.5 ± 2.8%, the “Nitrified NH4+—N (%) Day 14” value came to 37.2 ± 2.3% and the “Nitrified NH4+—N (%) Day 21” value came to 75.7 ± 5.4%. Further, the “Nitrified NH4+—N (%) Day 28” value in experiment [2] (setting [6]) is on record as 76.2 ± 2.1%. In experiment [2] (setting [7]), the “retaining NH4+ vs uninhibited control treatment” value is recorded as “performed statistically better”. Besides, the “nitrification rates vs uninhibited control treatment” value in experiment [2] (Horsham soil, 35° C.) is listed as “lower nitrification rates than the uninhibited control treatment”. Further, the “NOx−—N accumulation rate” value in experiment [3] (Dahlen soil, 25° C.) turned out to be 4.7 mg NOx−—N/kg soil/day. Further, in experiment [3] (setting [8]), the “retaining NH4+—N vs uninhibited control treatment and DMPP” value is recorded as “performed statistically better”. The “NOx−—N accumulation rate: effect of temperature (25° C. vs 35° C.)” value in experiment [3] (Dahlen soil) was “largest reduction in the accumulation rate”. Further, the “NOx−—N accumulation rate” value in experiment [3] (Dahlen soil, 35° C.) was found to be 2.4 mg NOx−—N/kg soil/day. For the same molecule, in experiment [3] (setting [9]), the ammonia consumption was found to be 38%; the “retaining NH4+ vs both DMPP treatment and control treatment” value is recorded as “performed statistically better”. In experiment [3] (setting [10]), the “Nitrified NH4+—N (%) Day 3” value is 3.0 ± 1.3%, the “Nitrified NH4+—N (%) Day 7” value is on record as 10.4 ± 3.6%, the “Nitrified NH4+—N (%) Day 14” value is 12.1 ± 3.2% and the “Nitrified NH4+—N (%) Day 21” value is 22.2 ± 5.0%. Also, the “Nitrified NH4+—N (%) Day 28” value in experiment [3] (setting [10]) is on record as 36.4 ± 6.8%. In experiment [3] (setting [11]), the “Nitrified NH4+—N (%) Day 3” value came out at 6.3 ± 2.2%, the “Nitrified NH4+—N (%) Day 7” value is listed as 8.8 ± 1.9%, the “Nitrified NH4+—N (%) Day 14” value came out at 17.7 ± 2.6% and the “Nitrified NH4+—N (%) Day 21” value was 38.0 ± 2.8%. Moreover, in experiment [3] (setting [11]), the “Nitrified NH4+—N (%) Day 28” value was found to be 37.6 ± 3.1%.
On to `CCCCn1cc(CCC)nn1` [Compound 13, 1-butyl-4-propyl-1H-1,2,3-triazole], for which the “Nitrified NH4+—N (%) Day 3” value in experiment [2] (setting [4]) is 17.7 ± 3.9%. In experiment [2] (setting [5]), the “Nitrified NH4+—N (%) Day 7” value amounted to 23.4 ± 5.4%, the “Nitrified NH4+—N (%) Day 14” value is reported as 40.0 ± 4.3%, the “Nitrified NH4+—N (%) Day 21” value is 47.2 ± 4.3% and the “Nitrified NH4+—N (%) Day 28” value is recorded as 72.2 ± 4.8%. Moreover, in experiment [2] (setting [6]), the “Nitrified NH4+—N (%) Day 3” value worked out at 3.5 ± 6.4%, the “Nitrified NH4+—N (%) Day 7” value was 18.7 ± 5.5%, the “Nitrified NH4+—N (%) Day 14” value was 48.0 ± 5.3% and the “Nitrified NH4+—N (%) Day 21” value worked out at 59.3 ± 10.3%. Also, in experiment [2] (setting [6]), the “Nitrified NH4+—N (%) Day 28” value is 61.2 ± 14.2%. Further, the “rate of NOx−—N accumulation” value in experiment [2] (Horsham soil, 25° C.) is 2.8 mg NOx−—N/kg soil/day. The “retaining NH4+ vs uninhibited control treatment” value in experiment [2] (setting [7]) is listed as “performed statistically better”. Also, in experiment [2] (Horsham soil, 35° C.), the “nitrification rates vs uninhibited control treatment” value is reported as “lower nitrification rates than the uninhibited control treatment”; the “retaining NH4+ and preventing NOx production (statistics vs control)” value is given as “performed statistically better”; the “rate of NOx−—N accumulation” value was found to be 2.8 mg NOx−—N/kg soil/day. The “NH4+—N consumption” value in experiment [2] (Horsham soil, 35° C., after 28 days) was found to be 61%. Moreover, the “NOx−—N accumulation rate” value in experiment [3] (Dahlen soil, 25° C.) is 2.5 mg NOx−—N/kg soil/day. Besides, the “retaining NH4+—N vs uninhibited control treatment and DMPP” value in experiment [3] (setting [8]) is reported as “performed statistically better”. The “NOx−—N accumulation rate: effect of temperature (25° C. vs 35° C.)” value in experiment [3] (Dahlen soil) is “least affected by the temperature change”. Besides, in experiment [3] (Dahlen soil, 35° C.), the “NOx−—N accumulation rate” value is reported as 2.4 mg NOx−—N/kg soil/day. Besides, in experiment [3] (setting [9]), the “retaining NH4+ vs both DMPP treatment and control treatment” value was “performed statistically better”. Also, in experiment [3] (setting [10]), the “Nitrified NH4+—N (%) Day 3” value turned out to be 10.6 ± 3.7%, the “Nitrified NH4+—N (%) Day 7” value is 22.2 ± 50.2%, the “Nitrified NH4+—N (%) Day 14” value is recorded as 24.9 ± 59.3% and the “Nitrified NH4+—N (%) Day 21” value is 32.6 ± 2.4%. Also, in experiment [3] (setting [10]), the “Nitrified NH4+—N (%) Day 28” value was determined as 41.5 ± 1.2%. In experiment [3] (setting [11]), the “Nitrified NH4+—N (%) Day 3” value was −1.2 ± 1.1%, the “Nitrified NH4+—N (%) Day 7” value was found to be 3.5 ± 1.3%, the “Nitrified NH4+—N (%) Day 14” value is listed as 9.2 ± 1.1% and the “Nitrified NH4+—N (%) Day 21” value amounted to 34.2 ± 2.4%. Moreover, the “Nitrified NH4+—N (%) Day 28” value in experiment [3] (setting [11]) is listed as 33.6 ± 1.3%.

Values taken from US20220324770A1, “NITRIFICATION INHIBITORS” (The University of Melbourne, priority 2019, published 2022).
